From patent US11168102B1, “Bicyclic heteroaryl compounds and uses thereof” (Revolution Medicines, Inc., priority 2019, dated 2021)

Assays:
[1] = target: SOS1 nucleotide exchange of wild-type KRAS (Homo sapiens (Human), UniProt Q07889); assay: Mode of action assay: inhibition of SOS1 nucleotide exchange activity (TR-FRET); assay type: biochemical; conditions: SOS1 catalytic domain (564-1049), avi-tagged KRAS (1-169), EDA-GTP-DY-647P1; three replicates
[2] = system: cellular pERK in PC-9 cells (EGFR Ex19Del); assay: Potency assay: pERK (AlphaLISA SureFire Ultra p-ERK1/2) in PC-9 cells; assay type: cell-based; conditions: Homo sapiens, PC-9, 1 h, PC-9 cells (EGFR Ex19Del), 1 hour incubation, AlphaLISA SureFire Ultra p-ERK1/2; read-out: SOS1 pERK IC50
[3] = target: SOS1 catalytic domain (residues 564-1049) (Homo sapiens (Human), UniProt Q07889); assay: Potency assay: binding affinity to SOS1 by Surface Plasmon Resonance (SPR); conditions: avi-tagged SOS1 catalytic domain immobilized on sensor chip; 1:1 equilibrium binding fit
Chain of SOS1 catalytic domain (residues 564-1049) (Q07889 564-1049): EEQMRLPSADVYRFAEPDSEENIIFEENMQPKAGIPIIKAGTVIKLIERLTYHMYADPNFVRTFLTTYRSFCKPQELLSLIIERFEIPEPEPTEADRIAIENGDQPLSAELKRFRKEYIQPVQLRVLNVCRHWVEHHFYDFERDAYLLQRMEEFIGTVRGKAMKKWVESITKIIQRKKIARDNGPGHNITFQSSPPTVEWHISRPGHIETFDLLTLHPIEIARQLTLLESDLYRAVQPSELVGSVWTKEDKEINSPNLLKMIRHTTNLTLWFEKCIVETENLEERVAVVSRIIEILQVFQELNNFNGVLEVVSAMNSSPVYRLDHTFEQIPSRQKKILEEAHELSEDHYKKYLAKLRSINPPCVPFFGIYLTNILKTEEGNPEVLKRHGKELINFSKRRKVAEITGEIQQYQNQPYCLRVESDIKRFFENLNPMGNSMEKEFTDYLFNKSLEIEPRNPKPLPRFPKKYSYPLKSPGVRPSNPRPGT

Chain of SOS1 nucleotide exchange of wild-type KRAS (Q07889 564-1049): as above

SMILES	IC50 [1] [µM]	IC50 [2] [µM]	Kd [3] [µM]
C[C@@H](Nc1ncnc2c1cc(C(=O)N1C3CC1CN(C)C3)c(=O)n2C)c1cccc(C(F)F)c1F [Example 26-11]	0.0461	0.251	0.0978
C[C@@H](Nc1ncnc2c1cc(C(=O)N1CCc3ncccc31)c(=O)n2C)c1cccc(C(F)F)c1F [Example 26-26]	0.0722	0.228	0.269
C[C@@H](Nc1ncnc2c1cc(C(=O)N(C)c1nccs1)c(=O)n2C)c1cccc(C(F)F)c1F [Example 26-20]	0.331	1.75	1.47
Cc1nc(N[C@H](C)c2cccc(C(F)F)c2F)c2cc(-c3cccn(CCO)c3=O)c(=O)n(C)c2n1 [Example 21-12]	0.123	0.588	0.216
CC(=O)N1CC=C(c2cc3c(N[C@H](C)c4cccc5c4OCC5(F)F)ncnc3n(C)c2=O)CC1 [Example 1-18]	0.0128	0.067	0.022
C[C@@H](Nc1ncnc2c1cc(C1=CCNCC1)c(=O)n2C)c1cccc(C(F)F)c1F [Example 1-3]	0.0212	0.0503	0.00786
Cc1nc(N[C@H](C)c2cccc(C(F)F)c2F)c2cc(N3CCN(C)CC3=O)c(=O)n(C)c2n1 [Example 2-5]	0.112	0.824	0.097
Cc1nc(N[C@H](C)c2cccc(C(F)F)c2F)c2cc(C3(F)CCN(C)CC3)c(=O)n(C)c2n1 [Example 29-4]	0.0159	0.144	0.0522
C[C@@H](Nc1ncnc2c1cc(C(=O)N1CCN(C)CC1)c(=O)n2C)c1cccc(C(F)F)c1F [Example 26-7]	0.0508	0.186	0.0775
C[C@@H](Nc1ncnc2c1cc(C(=O)N1CCS(=O)(=O)CC1)c(=O)n2C)c1cccc(C(F)F)c1F [Example 26-38]	0.156	0.392	0.235
C[C@@H](Nc1ncnc2c1cc(C1=CCNC1)c(=O)n2C)c1cccc(C(F)F)c1F [Example 1-1]	0.0415	0.14	0.0591
CC(=O)N1CC=C(c2cc3c(N[C@H](C)c4cccc(C(F)F)c4F)nc(C)nc3n(C)c2=O)CC1 [Example 1-21]	0.0956	0.173	0.137
C[C@@H](Nc1ncnc2c1cc(C1CN(C)CCO1)c(=O)n2C)c1cccc(C(F)F)c1F (stereo partly drawn) [Example 8-1]	0.0246	0.0684	0.0242
CC(=O)N1CC=C(c2cc3c(N[C@H](C)c4cccc(C(C)(F)F)c4)ncnc3n(C)c2=O)CC1 [Example 1-12]	0.034	0.125	0.0368
Cc1nc(N[C@H](C)c2cccc(C(F)F)c2F)c2cc(C3CCN(C)CC3)c(=O)n(C)c2n1 [Example 8-2]	0.0212	0.265	0.0644
C[C@@H](Nc1ncnc2c1cc(C(=O)N1CCN(C3COC3)CC1)c(=O)n2C)c1cccc(C(F)F)c1F [Example 26-43]	0.037	0.181	0.0536
CC(=O)N1CCC=C(c2cc3c(N[C@H](C)c4cccc(C(F)F)c4F)ncnc3n(C)c2=O)C1 [Example 1-14]	0.053	0.218	0.019
C[C@@H](Nc1ncnc2c1cc(C1(F)CCS(=O)(=NC3CC3)CC1)c(=O)n2C)c1cccc(C(F)F)c1F (single isomer, unassigned) [Example 57]	0.00765	0.0426	0.00919
C[C@@H](Nc1ncnc2c1cc(C1=C[C@H]3CNC[C@@H](C1)O3)c(=O)n2C)c1cccc(C(F)F)c1F [Example 1-13]	0.0193	0.195	0.0138
CC(=O)N1CC=C(c2cc3c(N[C@H](C)c4cccc(C(F)(F)F)c4C)ncnc3n(C)c2=O)CC1 [Example 1-19]	0.0443	0.091	0.144
Cc1nc(N[C@H](C)c2cccc(C(F)F)c2F)c2cc(C3=CCN(C4COC4)CC3)c(=O)n(C)c2n1 [Example 1-26]	0.0264	0.26	0.061
C[C@@H](Nc1ncnc2c1cc(C(=O)N1CC(C)(O)C1)c(=O)n2C)c1cccc(C(F)F)c1F [Example 26-3]	0.407	0.659	0.404
C[C@@H](Nc1ncnc2c1cc(C(=O)N1CCOCC1)c(=O)n2C)c1cccc(C(F)F)c1F [Example 26-2]	0.102	0.314	0.118
C[C@@H](Nc1ncnc2c1cc(C(=O)N1CCc3ccncc31)c(=O)n2C)c1cccc(C(F)F)c1F [Example 26-29]	0.0978	1.45	0.136
C[C@@H](Nc1ncnc2c1cc(C1(O)CCC3(CC1)CS(=O)(=O)C3)c(=O)n2C)c1cccc(C(F)F)c1F [Example 28-6]	0.014	0.123	0.021
C[C@@H](Nc1ncnc2c1cc(C1CCS(=O)(=O)C1)c(=O)n2C)c1cccc(C(F)F)c1F (stereo partly drawn) [Example 33-1]	0.0427	0.0621	0.486

SMILES	IC50 [1] [µM]	IC50 [2] [µM]	Kd [3] [µM]
Cc1nc(N[C@H](C)c2cccc(C(F)F)c2F)c2cc(C3=CCS(=N)(=O)CC3)c(=O)n(C)c2n1 (stereo partly drawn) [Example 23-1]	0.0783	0.076	0.0862
COc1ccc(-c2cc3c(N[C@H](C)c4cccc(C(F)F)c4F)ncnc3n(C)c2=O)cc1OC [Example 21-10]	0.532	0.611	0.849
C[C@@H](Nc1ncnc2c1cc(C(=O)N1C3CCC1COC3)c(=O)n2C)c1cccc(C(F)F)c1F [Example 26-12]	0.107	0.861	0.158
C[C@@H](Nc1ncnc2c1cc(C1CCN(C3COC3)CC1)c(=O)n2C)c1cccc(C(F)F)c1F [Example 8-8]	0.0305	–	0.062
C[C@@H](Nc1ncnc2c1cc(-c1cncnc1)c(=O)n2C)c1cccc(C(F)F)c1F [Example 21-2]	0.0429	–	0.0854
C[C@@H](Nc1ncnc2c1cc(C1CCS(=O)(=O)CC1)c(=O)n2C)c1cccc(C(F)F)c1F [Example 8-5]	0.0128	–	0.0376
Cc1nc(N[C@H](C)c2cccc(C(F)F)c2F)c2cc(C3=CCOC3)c(=O)n(C)c2n1 [Example 1-7]	0.257	0.693	0.353
C[C@@H](Nc1ncnc2c1cc(-c1cnc(F)nc1)c(=O)n2C)c1cccc(C(F)F)c1F [Example 21-5]	0.126	–	0.115
Cc1nc(N[C@H](C)c2cccc(C(F)F)c2F)c2cc(C3=CCN(C)CC3)c(=O)n(C)c2n1 [Example 1-10]	0.0429	0.425	0.0232
C[C@@H](Nc1ncnc2c1cc(C1CCN(CC(F)F)CC1)c(=O)n2C)c1cccc(C(F)F)c1F [Example 8-13]	0.0398	–	0.156
Cc1nc(N[C@H](C)c2cccc(C(F)F)c2F)c2cc(C3CCOC3)c(=O)n(C)c2n1 (stereo partly drawn) [Example 1-29]	0.129	0.309	0.157
C[C@@H](Nc1ncnc2c1cc(C1=CCNCC1)c(=O)n2C)c1cccc(C(F)(F)F)c1 [Example 1-2]	0.0238	0.114	0.0134
CC(=O)N1CC=C(c2cc3c(N[C@H](C)c4cccc(C(F)F)c4Cl)ncnc3n(C)c2=O)CC1 [Example 1-23]	0.094	0.0702	0.122
C[C@@H](Nc1ncnc2c1cc(C1=CCN(C)CC1)c(=O)n2C)c1cccc(C(F)(F)F)c1 [Example 1-8]	0.0201	0.169	0.02
C[C@@H](Nc1ncnc2c1cc(C(=O)N1CCCOCC1)c(=O)n2C)c1cccc(C(F)F)c1F [Example 26-9]	0.122	0.479	0.178
C[C@@H]1CN(C(=O)c2cc3c(N[C@H](C)c4cccc(C(F)F)c4F)ncnc3n(C)c2=O)C[C@H](C)O1 [Example 26-22]	0.113	2.61	0.474
Cc1nc(N[C@H](C)c2cccc(C(F)F)c2F)c2cc(C3=CCS(=O)(=O)CC3)c(=O)n(C)c2n1 [Example 1-25]	0.0673	0.0837	0.101
C[C@@H](Nc1ncnc2c1cc(C1=CCOCC1)c(=O)n2C)c1cccc(C(F)F)c1F [Example 1-5]	0.032	0.222	0.0163
C[C@@H](Nc1ncnc2c1cc(-c1ccccc1C#N)c(=O)n2C)c1cccc(C(F)F)c1F [Example 21-6]	0.0864	–	0.118
COC[C@H]1CCCN1C(=O)c1cc2c(N[C@H](C)c3cccc(C(F)F)c3F)ncnc2n(C)c1=O [Example 26-24]	0.0541	0.794	0.16
C[C@@H](Nc1ncnc2c1cc(C1CCN(CCF)CC1)c(=O)n2C)c1cccc(C(F)F)c1F [Example 8-4]	0.00766	–	0.0294
C[C@@H](Nc1ncnc2c1cc(C1CCN(S(C)(=O)=O)CC1)c(=O)n2C)c1cccc(C(F)F)c1F [Example 8-15]	0.0401	–	0.0904
Cc1nc(N[C@H](C)c2cccc(C(F)F)c2F)c2cc(C3CCN(C4COC4)CC3)c(=O)n(C)c2n1 [Example 8-14]	0.0812	–	0.2
Cc1nc(N[C@H](C)c2cccc(C(F)F)c2F)c2cc(-c3ccnnc3)c(=O)n(C)c2n1 [Example 21-3]	0.12	–	0.33
C[C@@H](Nc1ncnc2c1cc(-c1ccc3nonc3c1)c(=O)n2C)c1cccc(C(F)F)c1F [Example 21-8]	0.235	–	0.336
C[C@@H](Nc1ncnc2c1cc(C1CCN(CC(F)(F)F)CC1)c(=O)n2C)c1cccc(C(F)F)c1F [Example 8-16]	0.0775	–	0.136
